The values that follow come from patent US20230086702A1, “SUBSTITUTED 2-AMINO-PYRAZOLYL-[1,2,4]TRIAZOLO[1,5A]PYRIDINE DERIVATIVES AND USE THEREOF” (The Johns Hopkins University, priority 2019, published 2023).

The target of one test is T1, LZK (Homo sapiens, UniProt O43283).
T1 construct: 10 nM LZK, catalytic domain, Carna Biosiences in assay buffer; purchased Carna Biosciences ('Carna Biosiences' [sic])
T1 sequence (O43283 168-409 limits assumed): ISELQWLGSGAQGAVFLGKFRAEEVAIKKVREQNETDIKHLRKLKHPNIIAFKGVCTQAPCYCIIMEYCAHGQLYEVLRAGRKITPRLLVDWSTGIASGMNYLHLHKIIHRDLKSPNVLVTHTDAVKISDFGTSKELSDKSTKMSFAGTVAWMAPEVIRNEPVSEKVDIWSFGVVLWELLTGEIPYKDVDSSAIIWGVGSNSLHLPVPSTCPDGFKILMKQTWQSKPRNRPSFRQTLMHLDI
The experiment in a line: LZK biochemical assay (TR-FRET, MKK7 phosphorylation). The method in brief: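 LZK catalytic domain (10 nM) phosphorylates His-MKK7 (15 nM) with 15 µM ATP, all final, for 90 min at RT in HEPES buffer pH 7.5 with MgCl2. Phospho-T275/S277 detected by TR-FRET (Eu anti-phospho donor, XL665 anti-His acceptor) after 16 h at 32 °C in EDTA stop buffer. Inhibition lowers the 665/Eu ratio.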
(In general: Time-resolved FRET reads energy transfer from a long-lived donor to a nearby acceptor.)

The target in the next test is T2, DLK (Homo sapiens, UniProt Q12852).
T2 construct: 10 nM DLK, catalytic domain, Carna Biosiences; purchased Carna Biosciences ('Carna Biosiences' [sic])
T2 sequence (Q12852 125-366 limits assumed): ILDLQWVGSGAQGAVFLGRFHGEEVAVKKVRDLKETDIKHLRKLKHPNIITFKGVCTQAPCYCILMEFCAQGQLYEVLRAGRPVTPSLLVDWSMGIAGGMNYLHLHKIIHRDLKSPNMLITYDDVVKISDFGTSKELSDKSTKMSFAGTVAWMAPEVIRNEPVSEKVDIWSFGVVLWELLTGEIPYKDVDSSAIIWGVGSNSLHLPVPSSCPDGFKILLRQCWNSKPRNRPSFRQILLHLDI
The test can be described thus: DLK biochemical assay (TR-FRET, MKK7 phosphorylation). A digest of the protocol:
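DLK catalytic domain (10 nM) phosphorylates His-MKK7 (15 nM) at 60 μM ATP for 90 min at RT in pH 7.5 Hepes buffer (final concentrations). Phospho-T275/S277 is detected by TR-FRET (Eu anti-phospho donor, XL665 anti-His acceptor) after 16 h at 37° C (1536 format) or 4° C (384 format).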

On to `CCC(c1ccc(C(F)(F)F)nc1)n1cc(-c2cc(-c3ccc(=O)n(C(F)F)c3)n3nc(N)nc3c2)cn1` (single isomer, unassigned) [II-181, 5-[2-Amino-7-(1-{1-[6-(trifluoromethyl)pyridin-3-yl]propyl}-1H-pyrazol-4-yl)[1,2,4]triazolo[1,5-a]pyridin-5-yl]-1-(difluoromethyl)pyridin-2(1H)-one], for which the IC50 – broadly, the concentration at which inhibition is half-maximal – on LZK was determined as 0.0054 µM; against DLK it was 0.0027 µM.

With `Nc1nc2cc(-c3cnn(C(c4ccc(C(F)(F)F)nc4)C4CCOCC4)c3)cc(-c3ccc(=O)n(C(F)F)c3)n2n1` (single isomer, unassigned) [II-183, 5-[2-Amino-7-(1-{tetrahydro-2H-pyran-4-yl[6-(trifluoromethyl)pyridin-3-yl]methyl}-1H-pyrazol-4-yl)[1,2,4]triazolo[1,5-a]pyridin-5-yl]-1-(difluoromethyl)pyridin-2(1H)-one], the results for the IC50 against LZK and against DLK were 0.019 µM and 0.022 µM, respectively.

With `Nc1nc2cc(-c3cnn(C(c4ccc(C(F)(F)F)nc4)C4CCOCC4)c3)cc(-c3ccc(=O)n(C(F)F)c3)n2n1` (single isomer, unassigned) [II-184, 5-[2-Amino-7-(1-{tetrahydro-2H-pyran-4-yl[6-(trifluoromethyl)pyridin-3-yl]methyl}-1H-pyrazol-4-yl)[1,2,4]triazolo[1,5-a]pyridin-5-yl]-1-(difluoromethyl)pyridin-2(1H)-one], the IC50 on LZK stood at 0.0024 µM; against DLK, 0.0012 µM.

Take `Nc1nc2cc(-c3cnn(C(c4ccc(C(F)(F)F)nc4)C4CCOCC4)c3)cc(-c3ccc(=O)n(CC(F)F)c3)n2n1` (single isomer, unassigned) [II-186, 5-[2-Amino-7-(1-{tetrahydro-2H-pyran-4-yl[6-(trifluoromethyl)pyridin-3-yl]methyl}-1H-pyrazol-4-yl)[1,2,4]triazolo[1,5-a]pyridin-5-yl]-1-(2,2-difluoroethyl)pyridin-2(1H)-one]: the figures for the half-maximal inhibitory concentration (IC50) against LZK and at DLK were 0.0045 µM and 0.0041 µM, respectively.

In the case of `Nc1nc2cc(-c3cnn(C(c4ccc(C(F)(F)F)nc4)C4CCOCC4)c3)cc(-c3ccc(=O)n(CC(F)F)c3)n2n1` (single isomer, unassigned) [II-187, 5-[2-Amino-7-(1-{tetrahydro-2H-pyran-4-yl[6-(trifluoromethyl)pyridin-3-yl]methyl}-1H-pyrazol-4-yl)[1,2,4]triazolo[1,5-a]pyridin-5-yl]-1-(2,2-difluoroethyl)pyridin-2(1H)-one], the figures for the half-inhibitory concentration (IC50) at LZK and against DLK were 0.0005 µM and 0.0002 µM, respectively.

`CCC(c1ccc(C(F)(F)F)nc1)n1cc(-c2cc(-c3ccc(=O)n(CC(F)(F)F)c3)n3nc(N)nc3c2)cn1` (single isomer, unassigned) [II-189, 5-[2-Amino-7-(1-{1-[6-(trifluoromethyl)pyridin-3-yl]propyl}-1H-pyrazol-4-yl)[1,2,4]triazolo[1,5-a]pyridin-5-yl]-1-(2,2,2-trifluoroethyl)pyridin-2(1H)-one]: the half-maximal inhibitory concentration (IC50) against LZK is 0.032 µM; against DLK it was 0.015 µM.

For the compound `Nc1nc2cc(-c3cnn(C(c4ccc(C(F)(F)F)nc4)C4CCOCC4)c3)cc(-c3ccc(=O)n(CC(F)(F)F)c3)n2n1` (single isomer, unassigned) [II-192, 5-[2-Amino-7-(1-{tetrahydro-2H-pyran-4-yl[6-(trifluoromethyl)pyridin-3-yl]methyl}-1H-pyrazol-4-yl)[1,2,4]triazolo[1,5-a]pyridin-5-yl]-1-(2,2,2-trifluoroethyl)pyridin-2(1H)-one], the results for the IC50 at LZK and on DLK were 0.0022 µM and 0.0013 µM, respectively.

Take `Nc1nc2cc(-c3cnn(C(c4ccc(C(F)(F)F)nc4)C4CCOCC4)c3)cc(-c3ccc(=O)n(CC(F)(F)F)c3)n2n1` (single isomer, unassigned) [II-193, 5-[2-Amino-7-(1-{tetrahydro-2H-pyran-4-yl[6-(trifluoromethyl)pyridin-3-yl]methyl}-1H-pyrazol-4-yl)[1,2,4]triazolo[1,5-a]pyridin-5-yl]-1-(2,2,2-trifluoroethyl)pyridin-2(1H)-one]: the IC50 was 0.012 µM at LZK and 0.015 µM against DLK.

In the case of `Nc1nc2cc(-c3cnn(C(c4ccc(C(F)(F)F)nc4)C4CCOCC4)c3)cc(-c3cn(CC(F)(F)F)c(=O)cn3)n2n1` (single isomer, unassigned) [II-195, 5-[2-Amino-7-(1-{tetrahydro-2H-pyran-4-yl[6-(trifluoromethyl)pyridin-3-yl]methyl}-1H-pyrazol-4-yl)[1,2,4]triazolo[1,5-a]pyridin-5-yl]-1-(2,2,2-trifluoroethyl)pyrazin-2(1H)-one], the IC50 against LZK came out at 0.0052 µM; on DLK, 0.0011 µM.

`Nc1nc2cc(-c3cnn(C(c4ccc(C(F)(F)F)nc4)C4CCOCC4)c3)cc(-c3cn(CC(F)(F)F)c(=O)cn3)n2n1` (single isomer, unassigned) [II-196, 5-[2-Amino-7-(1-{tetrahydro-2H-pyran-4-yl[6-(trifluoromethyl)pyridin-3-yl]methyl}-1H-pyrazol-4-yl)[1,2,4]triazolo[1,5-a]pyridin-5-yl]-1-(2,2,2-trifluoroethyl)pyrazin-2(1H)-one]: the IC50 on LZK was 0.05 µM; against DLK it was 0.016 µM.

Take `Nc1nc2c(-c3ccc(C(F)(F)F)nc3)cc(-c3cnn(C4CCN(C5COC5)CC4)c3)cn2n1` [II-46, 6-{1-[1-(Oxetan-3-yl)piperidin-4-yl]-1H-pyrazol-4-yl}-8-[6-(trifluoromethyl)pyridin-3-yl][1,2,4]triazolo[1,5-a]pyridin-2-amine]: the values for the half-maximal inhibitory concentration (IC50) on LZK and at DLK were 0.38 µM and 0.75 µM, respectively.

As for `Nc1nc2cc(-c3cnn(Cc4ccccc4)c3)cc(-c3ccc(C4CC4)nc3)n2n1` [II-47, 7-(1-Benzyl-1H-pyrazol-4-yl)-5-(6-cyclopropylpyridin-3-yl)[1,2,4]triazolo[1,5-a]pyridin-2-amine], the IC50 against LZK amounted to 0.12 µM; against DLK, 0.033 µM.

Take `Nc1nc2cc(-c3cnn(C4CCN(C5COC5)CC4)c3)cc(-c3ccc(C4CC4)nc3)n2n1` [II-83, 5-(6-Cyclopropylpyridin-3-yl)-7-{1-[1-(oxetan-3-yl)piperidin-4-yl]-1H-pyrazol-4-yl}[1,2,4]triazolo[1,5-a]pyridin-2-amine]: the half-maximal inhibitory concentration (IC50) is 0.11 µM on LZK and 0.21 µM against DLK.

Regarding `Nc1nc2cc(-c3cnn(Cc4ccccc4)c3)cc(-c3cnc(C4CC4)nc3)n2n1` [II-84, 7-(1-Benzyl-1H-pyrazol-4-yl)-5-(2-cyclopropylpyrimidin-5-yl)[1,2,4]triazolo[1,5-a]pyridin-2-amine], the concentration for half-maximal inhibition (IC50) is 0.29 µM on LZK and 0.055 µM against DLK.

On to `Nc1nc2cc(-c3cnn(Cc4ccccc4)c3)cc(-c3cnccn3)n2n1` [II-86, 7-(1-Benzyl-1H-pyrazol-4-yl)-5-(pyrazin-2-yl)[1,2,4]triazolo[1,5-a]pyridin-2-amine], for which the figures for the half-maximal inhibitory concentration (IC50) at LZK and on DLK were 0.9 µM and 0.054 µM, respectively.

Take `CCc1cnc(-c2cc(-c3cnn(Cc4ccccc4)c3)cc3nc(N)nn23)cn1` [II-87, 7-(1-Benzyl-1H-pyrazol-4-yl)-5-(5-ethylpyrazin-2-yl)[1,2,4]triazolo[1,5-a]pyridin-2-amine]: the IC50 against LZK came out at 0.53 µM; on DLK it was 0.042 µM.

Turning to `Cc1cc(-c2cc(-c3cnn(Cc4ccccc4)c3)cc3nc(N)nn23)cnn1` [II-88, 7-(1-Benzyl-1H-pyrazol-4-yl)-5-(6-methylpyridazin-4-yl)[1,2,4]triazolo[1,5-a]pyridin-2-amine], the half-inhibitory concentration (IC50) against LZK was found to be 0.62 µM; on DLK it was 0.48 µM.

As to `CC[C@@H](c1ccccc1)n1cc(-c2cc(-c3cnn(C)c3)c3nc(N)nn3c2)cn1` [II-90, 8-(1-Methyl-1H-pyrazol-4-yl)-6-{1-[(1S)-1-phenylpropyl]-1H-pyrazol-4-yl}[1,2,4]triazolo[1,5-a]pyridin-2-amine], the IC50 at LZK came to 0.23 µM; against DLK it was 0.0065 µM.

With `CC[C@@H](c1ccccc1)n1cc(-c2cc(-c3cnn(CC)c3)c3nc(N)nn3c2)cn1` [II-91, 8-(1-Ethyl-1H-pyrazol-4-yl)-6-{1-[(1S)-1-phenylpropyl]-1H-pyrazol-4-yl}[1,2,4]triazolo[1,5-a]pyridin-2-amine], the IC50 turned out to be 0.115 µM at LZK and 0.0052 µM at DLK.

Take `CC[C@@H](c1ccccc1)n1cc(-c2cc(-c3cnn(C4CC4)c3)c3nc(N)nn3c2)cn1` [II-92, 8-(1-Cyclopropyl-1H-pyrazol-4-yl)-6-{1-[(1S)-1-phenylpropyl]-1H-pyrazol-4-yl}[1,2,4]triazolo[1,5-a]pyridin-2-amine]: the IC50 against LZK is 0.15 µM; against DLK, 0.0067 µM.

For the compound `CC[C@@H](c1ccccc1)n1cc(-c2cc(-c3cnn(CC(F)(F)F)c3)c3nc(N)nn3c2)cn1` [II-93, 6-{1-[(1S)-1-Phenylpropyl]-1H-pyrazol-4-yl}-8-[1-(2,2,2-trifluoroethyl)-1H-pyrazol-4-yl][1,2,4]triazolo[1,5-a]pyridin-2-amine], the half-inhibitory concentration (IC50) on LZK was 0.068 µM; at DLK, 0.019 µM.
